Read-outs that look alike come from different tables or passages of the source.
Experiments:
[1] = HEK 293 kidney cell viability / cytotoxicity assay (Alamar Blue); type: cell-based; conditions: human
Description: Evaluating compound effects on kidney cell viability.
HEK 293 cells were maintained in MEM medium (Corning Cellgro, 10-009 CV) supplemented with 10% FBS (Sigma, F2242). […] Cells at 80% confluence were harvested and diluted in growth medium, then 45 μL of the HEK 293 cells (1,500 cells/well) were dispensed per well, and plates were sealed with “Breathe Easy” oxygen permeable membranes (Diversified Biotech) and incubated at 37° C., 5% CO2, for 24 h. […] Plates were sealed with “Breathe Easy” oxygen permeable membranes and incubated for an additional 48 h at 37° C. and 5% CO2. The Alamar Blue reporter reagents were then added to a final concentration of 10%, the plates incubated at 37° C. and 5% CO2, and sample fluorescence (535 nm excitation, 590 nm emission) was read using a Molecular Devices FlexStation II 384-well plate reader (readings taken between 4-24 h of incubation so as to achieve signals in the 30-60% range for conversion of resazurin to resorufin). Cell viability was calculated as per vendor instructions (Thermo Fisher—Alamar Blue cell viability assay manual).

GroEL/ES = biological target: T1, GroEL/ES (Escherichia coli, UniProt P0A6F5); experiment: GroEL/ES-mediated dMDH refolding assay; type: biochemical, E. coli
T1 construct: made in house; host or cells: GroEL in E. coli DH5a; GroES in E. coli BL21 (DE3)
Description: Evaluation of compounds ability to inhibit GroEL/ES and HSP60/10-mediated dMDH refolding assays.
Reagent preparation: For these assays, four primary reagent stocks were prepared: 1) GroEL/ES-dMDH or HSP60/10-dMDH binary complex stock; 2) ATP initiation stock; 3) EDTA quench stock; 4) MDH enzymatic assay stock. Denatured MDH (dMDH) was prepared by 2-fold dilution of MDH (5 mg/ml, soluble pig heart MDH from Roche, product #10127248001) with denaturant buffer (7 M guanidine-HCl, 200 mM Tris, pH 7.4, and 50 mM DTT). MDH was completely denatured by incubating at room temperature for 45 min. The binary complex solutions were prepared by slowly adding the dMDH stock to a stirring stock with GroEL (or HSP60) in folding buffer (50 mM Tris-HCl, pH 7.4, 50 mM KCl, 10 mM MglC2, and 1 mM DTT), followed by addition of GroES (or HSP10). The binary complex stocks were prepared immediately prior to dispensing into the assay plates and had final protein concentrations of 83.3 nM GroEL (Mr 800 kDa) or HSP60 (Mr 400 kDa), 100 nM GroES or HSP10 (Mr 70 kDa), and 20 nM dMDH in folding buffer. For the ATP initiation stock, ATP solid was diluted into folding buffer to a final concentration of 2.5 mM. Quench solution contained 600 mM EDTA (pH 8.0). The MDH enzymatic assay stock consisted of 20 mM sodium mesoxalate and 2.4 mM NADH in reaction buffer (50 mM Tris-HCl, pH 7.4, 50 mM KC1, and 1 mM DTT).
Assay Protocol: First, 30 μL aliquots of the GroEL/ES-dMDH or HSP60/10-dMDH binary complex stocks were dispensed into clear, 384-well polystyrene plates. Next, 0.5 μL of the compound stocks (10 mM to 4.6 μM, 3-fold dilutions series in DMSO) were added by pin-transfer (V&P Scientific). The chaperonin-mediated refolding cycles were initiated by addition of 20 IA of ATP stock (reagent concentrations during refolding cycle: 50 nM GroEL or HSP60, 60 nM GroES or HSP10, 12 nM dMDH, 1 mM ATP, and compounds of 100 μM to 46 nM, 3-fold dilution series). The refolding reactions were incubated at 37° C. The incubation time was determined from refolding time-course control experiments until they reached ˜90% completion of refolding cycle — generally ˜20-40 min for GroEL/ES, and ˜40-60 min for HSP60/10). Next, the assay was quenched by addition of 10 μL of the EDTA to final concentration of 100 mM. […] A340 nm measurements were recorded at 0.5 minutes (start point) and at successive time points until the amount of NADH consumed reached ˜90% (end point, generally between 20-35 minutes). The differences between the start and end point A340 values were used to calculate the % inhibition of the GroEL/ES or HSP60/10 machinery by the compounds. IC50 values for the test compounds were obtained by plotting the % inhibition results in GraphPad Prism 6 and analyzing by non-linear regression using the log (inhibitor) vs. response (variable slope) equation. Results presented represent the averages of IC50 values obtained from at least quadriplicate (duplicate of duplicate) replicates. For results, see Tables 1, 2, and 3.

[2] = HEK 293 kidney cells, Table 3, 48 h incubation, Alamar Blue, read-out: HEK 293 Kidney Cell Viability CC50
[3] = HEK 293 kidney cells, Table 2, 48 h incubation, Alamar Blue, read-out: HEK 293 Kidney Cell Viability CC50
[4] = Table 2, 48 h incubation, Alamar Blue, read-out: HEK 293 Kidney Cell Viability CC50
[5] = Table 3, 48 h incubation, Alamar Blue, read-out: HEK 293 Kidney Cell Viability CC50

T1 sequence (P0A6F5 2-548): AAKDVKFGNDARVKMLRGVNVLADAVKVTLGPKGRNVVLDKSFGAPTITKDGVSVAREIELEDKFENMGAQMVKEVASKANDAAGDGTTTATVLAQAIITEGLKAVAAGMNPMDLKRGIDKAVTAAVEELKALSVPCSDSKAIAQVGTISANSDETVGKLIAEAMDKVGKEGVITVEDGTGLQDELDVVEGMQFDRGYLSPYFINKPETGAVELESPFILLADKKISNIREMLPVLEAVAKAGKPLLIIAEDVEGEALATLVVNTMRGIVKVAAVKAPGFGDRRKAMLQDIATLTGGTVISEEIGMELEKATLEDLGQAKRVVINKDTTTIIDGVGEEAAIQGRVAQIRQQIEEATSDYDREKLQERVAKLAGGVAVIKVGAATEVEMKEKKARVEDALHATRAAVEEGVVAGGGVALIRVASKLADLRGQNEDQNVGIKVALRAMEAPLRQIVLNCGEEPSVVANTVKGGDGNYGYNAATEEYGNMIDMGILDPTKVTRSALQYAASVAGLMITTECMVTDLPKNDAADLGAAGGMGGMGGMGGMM

Compound	IC50 (GroEL/ES) [µM]	CC50 at 48 h [1, 4] [µM]	further results
COc1ccc(NC(=O)c2cc(Cl)ccc2O)cc1 [Compound 113, 5-chloro-2-hydroxy-N-(4-methoxyphenyl)benzamide]	> 100	–	CC50 at 48 h [1, 2]: 19 µM
Cc1cc(C(C#N)c2ccc(Cl)cc2)c(Cl)cc1NC(=O)c1ccc([N+](=O)[O-])cc1 (stereo not shown) [Compound 69, N-(5-chloro-4-((4-chlorophenyl)(cyano)methyl)-2-methylphenyl)-4-nitrobenzamide]	37	–	CC50 at 48 h [1, 3]: > 100 µM
COc1ccccc1C(=O)Nc1cc(Cl)c(C(C#N)c2ccc(Cl)cc2)cc1C (stereo not shown) [Compound 61, N-(5-chloro-4-((4-chlorophenyl)(cyano)methyl)-2-methylphenyl)-2-methoxybenzamide]	72	–	CC50 at 48 h [1, 3]: > 100 µM
Cc1cc(C(C#N)c2ccc(Cl)cc2)c(Cl)cc1NC(=O)c1cc(Br)cc(Br)c1O (stereo not shown) [Compound 46, 3,5-dibromo-N-(5-chloro-4-((4-chlorophenyl)(cyano)methyl)-2-methylphenyl)-2-hydroxybenzamide]	1.9	58	–
COc1cc(Cl)ccc1C(=O)Nc1cc(Cl)c(C(C#N)c2ccc(Cl)cc2)cc1C (stereo not shown) [Compound 55, 4-chloro-N-(5-chloro-4-((4-chlorophenyl)(cyano)methyl)-2-methylphenyl)-2-methoxybenzamide]	59	> 100	–
Cc1cc(C(C#N)c2ccc(Cl)cc2)c(Cl)cc1NC(=O)c1cc(Cl)ccc1O (stereo not shown) [Compound 58, 5-chloro-N-(5-chloro-4-((4-chlorophenyl)(cyano)methyl)-2-methylphenyl)-2-hydroxybenzamide]	24	11	–
COc1ccc(Cl)cc1C(=O)Nc1ccc(O)cc1 [Compound 114, 5-chloro-N-(4-hydroxyphenyl)-2-methoxybenzamide]	> 100	–	CC50 at 48 h [1, 2]: > 100 µM
Cc1cc(C(C#N)c2ccc(Cl)cc2)c(Cl)cc1NC(=O)c1ccccc1F (stereo not shown) [Compound 79, N-(5-chloro-4-((4-chlorophenyl)(cyano)methyl)-2-methylphenyl)-2-fluorobenzamide]	89	–	CC50 at 48 h [1, 3]: 85 µM
O=C(Nc1ccc(Cc2ccccc2)cc1)c1cc(Cl)ccc1O [Compound 99, N-(4-benzylphenyl)-5-chloro-2-hydroxybenzamide]	77	–	CC50 at 48 h [1, 5]: 19 µM
O=C(Nc1ccc(Oc2ccccc2)c(Cl)c1)c1cc(Cl)ccc1O [Compound 91, 5-chloro-N-(3-chloro-4-phenoxyphenyl)-2-hydroxybenzamide]	51	–	CC50 at 48 h [1, 5]: 4.7 µM
COc1c(Cl)cc(Cl)cc1C(=O)Nc1cc(Cl)c(C(C#N)c2ccc(Cl)cc2)cc1C (stereo not shown) [Compound 51, 3,5-dichloro-N-(5-chloro-4-((4-chlorophenyl)(cyano)methyl)-2-methylphenyl)-2-methoxybenzamide]	38	83	–
COc1c(Cl)cccc1C(=O)Nc1cc(Cl)c(C(C#N)c2ccc(Cl)cc2)cc1C (stereo not shown) [Compound 53, 3-chloro-N-(5-chloro-4-((4-chlorophenyl)(cyano)methyl)-2-methylphenyl)-2-methoxybenzamide]	81	–	CC50 at 48 h [1, 3]: > 100 µM
O=C(Nc1ccc(Oc2ccc(Cl)cc2)c(Cl)c1)c1cc(I)cc(I)c1O [Rafoxanide, reference compound]	–	–	CC50 at 48 h ([1]; Table 1, 48 h incubation, Alamar Blue, read-out: HEK 293 Kidney Cell Viability CC50): 82 µM; IC50 (GroEL/ES; Table 1, 37° C., 1 mM ATP, read-out: Biochemical Assay IC50 GroEL/ES-dMDH Refolding): 3.8 µM
COc1ccc(Cl)cc1C(=O)Nc1ccc(CCc2ccccc2)cc1 [Compound 100, 5-chloro-2-methoxy-N-(4-phenethylphenyl)benzamide]	> 100	–	CC50 at 48 h [1, 2]: > 100 µM
Cc1cc(C(C#N)c2ccc(Cl)cc2)c(Cl)cc1NC(=O)c1cccc(Cl)c1O (stereo not shown) [Compound 54, 3-chloro-N-(5-chloro-4-((4-chlorophenyl)(cyano)methyl)-2-methylphenyl)-2-hydroxybenzamide]	14	88	–
Cc1cc(C(C#N)c2ccc(Cl)cc2)c(Cl)cc1NC(=O)c1cc(I)cc(I)c1O (stereo not shown) [Closantel, reference compound]	–	–	CC50 at 48 h [1]: 79 µM

Source: patent US20230406831A1, “COMPOUNDS AND METHODS OF INHIBITING BACTERIAL CHAPERONIN SYSTEMS” (THE TRUSTEES OF INDIANA UNIVERSITY, priority 2020, published 2023)
